Like-named read-outs stand apart in the source and are kept apart here.

Data set [1] can be described thus: Solubility in water / aqueous solubility of HPPs and parent drugs. The following applies: product as prepared in Example 1.
Data set [2] can be described thus: Plasma levels after transdermal administration to hairless mice. The format is in vivo. The following applies: for Peak plasma concentration of parent compound after prodrug compound / t, time to peak plasma level of parent compound after prodrug compound: mouse, in vivo. On the procedure: Tested compounds (20% solution or suspension in 1 mL isopropanol) are administered transdermally to the skin of intact hairless mice. The plasma levels of the parent compounds are determined by HPLC.

A short description of a further data set: in vivo. Conditions: rat.
In the next data set the test system is human skin tissue. The following applies: pH 7.4.
The next data set deals with rats. The data set can be described thus: Antipyretic activity, E. coli suspension as pyrogen. The format is in vivo. The following applies: in °C (unit assumed). The method, then: Rats are administered with sterilized E. coli suspension as a pyrogen. Each group of rats are administered with a prodrug compounds or parent compounds at a dosage specified below. The prodrug compounds are administered either orally or transdermally. The parent compounds are administered orally.

Another data set relates to mice. Put plainly: Analgesic activity, acetic acid writhing. The class given is in vivo. The method, then: The prodrug compounds are administered either transdermally or orally. The parent compounds are administered orally. The number of writhing that occurred when mice are administered the acetic acid solution are counted, and the rate of inhibition based on the control group which was not pretreated with any test compounds is calculated. […] The A group is the control group.
For orientation: An intraperitoneal irritant provokes the stretching counted in writhing tests.

[3] abbreviates: 100 mg/kg transdermally, 60 minutes before acetic acid.
The mark [4] stands for this setting: 100 mg/kg transdermally, 30 min before acetic acid.
The mark [5] stands for this setting: 50 mg/kg transdermally, 60 minutes before acetic acid.
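For LD50 in this document: acute toxicity in rats expressed as LD50, determined for both prodrugs and their parent compounds.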
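For LD50 of HPP in this document: acute toxicity in rats expressed as LD50, determined for both prodrugs and their parent compounds.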

Experimental for in vivo: The acute toxicity of the prodrug compounds and parent compounds are measured by LD50 of rat.

Regarding `CC(=O)O.CN(C)CCOC(=O)Cc1ccccc1Nc1c(Cl)cccc1Cl` [dimethylaminoethyl 2[(2,6-dichlorophenyl)amino] benzene acetate.AcOH], the “LD50 of HPP” value in the data set on rat (rat, in vivo) stood at 700 mg/kg. The Solubility in water in data set [1] stood at 410 mg/mL.

For orientation: LD50 means the dose at which mortality reaches 50%. Consider `O=C(O)Cc1sc(-c2ccccc2)nc1-c1ccc(Cl)cc1` [Fentiazac, fentiazac, reference compound], for which the “t, time to peak plasma level after parent compound” value in data set [2] (parent compound administered (time when taken orally)) lay within 1 to 2 h. Further, in data set [2] (parent compound administered, hairless mice), the “Peak plasma concentration after parent compound” value amounted to 0.1 mg/L. In addition, the LD50 in the data set “in vivo” was found to be 700 mg/kg. Moreover, in the data set on human skin tissue (human, 20 %), the “In vitro penetration rate (apparent flux), parent compounds” value worked out at 10 μg/cm^2/h.

As for `CC(=O)O.CCN(CC)CCOC(=O)c1cccnc1Nc1cccc(C(F)(F)F)c1` [diethylaminoethyl 2-[[3-(trifluoromethyl)phenyl]amino]-3-pyridinecarboxylate.AcOH], in the data set on rat (rats), the “LD50 of HPP” value turned out to be 750 mg/kg. In data set [2], the “Peak plasma concentration of parent compound after prodrug compound” value was found to be 20 mg/L and the “t, time to peak plasma level of parent compound after prodrug compound” value (shortened to “t, time … after prodrug compound”) amounted to 50 min. For the same molecule, in the data set with rats (100 mg/kg transdermally), the “body temperature, t = 0 min” value is 37.25 ± 0.07; the “body temperature, t = 90 min” value is on record as 36.82 ± 0.06; the “body temperature, t = 180 min” value is recorded as 36.70 ± 0.05; the “body temperature, t = 270 min” value is on record as 36.50 ± 0.08. Besides, in the data set with mice (setting [3]), the “% (rate of writhing inhibition)” value is given as 57% and the “No. of Writhing” value was determined as 15.2. In the data set on human skin tissue, the “In vitro penetration rate (apparent flux), prodrug compounds” value worked out at 1800 μg/cm^2/h.

`CC(=O)O.CCN(CC)CCOC(=O)C(C)c1ccc2c(c1)Cc1cccnc1O2` (stereo not drawn) [diethylaminoethyl α-methyl-5H-[1]benzopyrano[2,3-b]pyridine-7-acetate.AcOH]: the “LD50 of HPP” value in the data set on rat (rat, in vivo) worked out at 750 mg/kg. In data set [2], the “Peak plasma concentration of parent compound after prodrug compound” value is on record as 2000 mg/L and the “t, time … after prodrug compound” value is 50 min. In addition, in the data set with rats (100 mg/kg transdermally), the “body temperature, t = 0 min” value was found to be 37.27 ± 0.06; the “body temperature, t = 90 min” value turned out to be 36.76 ± 0.05; the “body temperature, t = 180 min” value is on record as 36.65 ± 0.08; the “body temperature, t = 270 min” value is 36.49 ± 0.07. Further, in the data set with mice (setting [4]), the “% (rate of writhing inhibition)” value is given as 54% and the “No. of Writhing” value is reported as 16.1. In addition, in the data set on human skin tissue, the “In vitro penetration rate (apparent flux), prodrug compounds” value is 3800 μg/cm^2/h.

For `CC(=O)O.CCN(CC)CCOC(=O)C(Cl)c1ccc(C2CCCCC2)c(Cl)c1` (stereo not drawn) [diethylaminoethyl α,3-dichloro-4-cyclohexylbenzeneacetate.AcOH], the “LD50 of HPP” value in the data set on rat (rats) worked out at 600 mg/kg. For the same molecule, in data set [2], the “Peak plasma concentration of parent compound after prodrug compound” value was determined as 2000 mg/L and the “t, time … after prodrug compound” value was found to be 50 min. Further, in the data set with rats (100 mg/kg transdermally), the “body temperature, t = 0 min” value is reported as 37.25 ± 0.06; the “body temperature, t = 90 min” value worked out at 36.75 ± 0.05; the “body temperature, t = 180 min” value was found to be 36.62 ± 0.08; the “body temperature, t = 270 min” value is listed as 36.58 ± 0.07. Further, in the data set with mice (setting [4]), the “% (rate of writhing inhibition)” value turned out to be 57% and the “No. of Writhing” value is listed as 15.2. Further, in the data set on human skin tissue, the “In vitro penetration rate (apparent flux), prodrug compounds” value is listed as 3800 μg/cm^2/h.

For the molecule `CC(=O)O.CCN(CC)CCOC(=O)C(C)c1ccc2cc(OC)ccc2c1` (stereo not shown) [diethylaminoethyl 2-(6-methoxy-2-naphthyl)propionate.AcOH], the “LD50 of HPP” value with rat (rats) was 2200 mg/kg. Also, in data set [2], the “Peak plasma concentration of parent compound after prodrug compound” value amounted to 2000 mg/L and the “t, time … after prodrug compound” value stood at 50 min. Moreover, in the data set with rats (100 mg/kg transdermally), the “body temperature, t = 0 min” value amounted to 37.33 ± 0.07; the “body temperature, t = 90 min” value is on record as 36.80 ± 0.06; the “body temperature, t = 180 min” value turned out to be 36.72 ± 0.05; the “body temperature, t = 270 min” value is 36.50 ± 0.08. Besides, in the data set with mice (setting [4]), the “% (rate of writhing inhibition)” value was 51% and the “No. of Writhing” value stood at 17.1. In the data set with human skin tissue, the “In vitro penetration rate (apparent flux), prodrug compounds” value amounted to 3500 μg/cm^2/h.

Take `CC(=O)O.CCN(CC)CCOC(=O)C(C)c1ccc(N2Cc3ccccc3C2=O)cc1` (stereo not drawn) [diethylaminoethyl 4-(1,3-dihydro-1-oxo-2H-isoindol-2-yl)-α-methylbenzeneacetate.AcOH]: the “LD50 of HPP” value in the data set on rat (rats) is 3500 mg/kg. Besides, in data set [2], the “Peak plasma concentration of parent compound after prodrug compound” value came out at 2000 mg/L and the “t, time … after prodrug compound” value was 50 min. For the same molecule, in the data set with rats (100 mg/kg transdermally), the “body temperature, t = 0 min” value is listed as 37.28 ± 0.06; the “body temperature, t = 90 min” value amounted to 36.65 ± 0.06; the “body temperature, t = 180 min” value turned out to be 36.58 ± 0.08; the “body temperature, t = 270 min” value turned out to be 36.56 ± 0.07. In the data set on mice (setting [4]), the “% (rate of writhing inhibition)” value was determined as 62% and the “No. of Writhing” value was 13.2. The “In vitro penetration rate (apparent flux), prodrug compounds” value with human skin tissue was 4200 μg/cm^2/h.

Take `C=C(C)CNc1ccc(C(C)C(=O)OCCN(CC)CC)cc1.CC(=O)O` (stereo not drawn) [diethylaminoethyl α-methyl-4-[(2-methyl-2-propenyl)amino]benzeneacetate.AcOH]: the “LD50 of HPP” value in the data set with rat (rats) came out at 1100 mg/kg. For the same molecule, in data set [2], the “Peak plasma concentration of parent compound after prodrug compound” value amounted to 2000 mg/L and the “t, time … after prodrug compound” value is on record as 50 min. Besides, in the data set on rats (100 mg/kg transdermally), the “body temperature, t = 0 min” value is recorded as 37.23 ± 0.06; the “body temperature, t = 90 min” value turned out to be 36.69 ± 0.06; the “body temperature, t = 180 min” value is reported as 36.52 ± 0.08; the “body temperature, t = 270 min” value was 36.40 ± 0.07. In addition, in the data set with mice (setting [4]), the “% (rate of writhing inhibition)” value is 55% and the “No. of Writhing” value stood at 15.6. Further, the “In vitro penetration rate (apparent flux), prodrug compounds” value in the data set with human skin tissue stood at 3500 μg/cm^2/h.

Turning to `CC(=O)O.CCN(CC)CCOC(=O)C(C)c1ccc(C(=O)c2cccs2)cc1` (stereo not drawn) [diethylaminoethyl α-methyl-4-(2-thienylcarbonyl)benzeneacetate.AcOH], the “LD50 of HPP” value in the data set with rat (rats) turned out to be 800 mg/kg. Further, in data set [2], the “Peak plasma concentration of parent compound after prodrug compound” value was 2000 mg/L and the “t, time … after prodrug compound” value came out at 50 min. Further, in the data set on rats (100 mg/kg transdermally), the “body temperature, t = 0 min” value is given as 37.28 ± 0.06; the “body temperature, t = 90 min” value came to 36.65 ± 0.06; the “body temperature, t = 180 min” value came to 36.58 ± 0.08; the “body temperature, t = 270 min” value was 36.45 ± 0.07. In the data set with mice (setting [4]), the “% (rate of writhing inhibition)” value amounted to 55% and the “No. of Writhing” value was determined as 15.7. Moreover, the “In vitro penetration rate (apparent flux), prodrug compounds” value with human skin tissue amounted to 3000 μg/cm^2/h.

Regarding `CC(=O)O.CCN(CC)CCOC(=O)CC1=C(C)/C(=C/c2ccc([S+](C)[O-])cc2)c2ccc(F)cc21` (stereo not shown) [diethylaminoethyl (Z)-5-fluoro-2-methyl-1-[(4-methylsulfinyl)phenylmethylene]-1H-indene-3-acetate.AcOH], the “LD50 of HPP” value in the data set on rat (rats) came to 500 mg/kg. In addition, in data set [2], the “Peak plasma concentration of parent compound after prodrug compound” value is 20 mg/L and the “t, time … after prodrug compound” value turned out to be 50 min. In the data set with rats (100 mg/kg transdermally), the “body temperature, t = 0 min” value was 37.28 ± 0.06; the “body temperature, t = 90 min” value came out at 36.65 ± 0.05; the “body temperature, t = 180 min” value worked out at 36.62 ± 0.08; the “body temperature, t = 270 min” value came out at 36.58 ± 0.07. In addition, in the data set with mice (setting [4]), the “% (rate of writhing inhibition)” value is 59% and the “No. of Writhing” value was 14.2. The “In vitro penetration rate (apparent flux), prodrug compounds” value in the data set with human skin tissue is recorded as 900 μg/cm^2/h.

As to `CC(=O)O.CCN(CC)CCOC(=O)Cc1cccc(C(=O)c2ccccc2)c1N` [diethylaminoethyl 2-amino-3-benzoylbenzeneacetate.AcOH], the “LD50 of HPP” value with rat (rats) is 1000 mg/kg. Besides, in data set [2], the “Peak plasma concentration of parent compound after prodrug compound” value turned out to be 20 mg/L and the “t, time … after prodrug compound” value is 50 min. In the data set with rats (100 mg/kg transdermally), the “body temperature, t = 0 min” value was found to be 37.22 ± 0.06; the “body temperature, t = 90 min” value was 36.65 ± 0.05; the “body temperature, t = 180 min” value is on record as 36.62 ± 0.08; the “body temperature, t = 270 min” value is listed as 36.58 ± 0.07. For the same molecule, in the data set with mice (setting [4]), the “% (rate of writhing inhibition)” value worked out at 61% and the “No. of Writhing” value came to 13.8. The “In vitro penetration rate (apparent flux), prodrug compounds” value with human skin tissue worked out at 800 μg/cm^2/h.

On to “4-N,N-dimethylaminobutyryloxy-2-methyl-N-[5-Methyl-3-isoxolyl-2H-1,2-benzothiazine-3-carboxamide 1,1-dioxide].HCl”, for which, in the data set on rat (rats), the “LD50 of HPP” value worked out at 570 mg/kg. Besides, in data set [2], the “Peak plasma concentration of parent compound after prodrug compound” value came out at 20 mg/L and the “t, time … after prodrug compound” value is 50 min. Also, in the data set on rats (25 mg/kg transdermally), the “body temperature, t = 0 min” value amounted to 37.52 ± 0.06; the “body temperature, t = 90 min” value came to 36.62 ± 0.07; the “body temperature, t = 180 min” value was determined as 36.53 ± 0.06; the “body temperature, t = 270 min” value came out at 36.60 ± 0.05. Also, in the data set with mice (setting [5]), the “% (rate of writhing inhibition)” value worked out at 55% and the “No. of Writhing” value turned out to be 15.8. Moreover, the “In vitro penetration rate (apparent flux), prodrug compounds” value in the data set on human skin tissue was 1800 μg/cm^2/h.

Values taken from patent publication US20210353579A1, “HIGH PENETRATION COMPOSITIONS AND USES THEREOF” (Techfields Pharma Co., Ltd., priority 2006, published 2021).
